As usually defined, the inhibition is the share of the control response that was lost under treatment. In general, AUC(0-inf) refers to the area under the concentration-time curve extrapolated to infinity. A higher AUC(0-inf) goes with high exposure. For orientation: Cmax means the maximum level reached in the sampled fluid or tissue. Broadly, the IC50 is the concentration needed to halve the response being measured.

SMILES strings stand for the structures.

Data set [1] deals with neurodegeneration induced by MPTP (TH-positive neurons). As to the kind of experiment: MPTP animal model of Parkinson's disease, TH immunohistochemistry. Conditions: oral, 10 or 30 mg/kg once a day, 6 days before, on the day of and 7 days after MPTP; substantia nigra pars compacta. Type of data set: in vivo, C57BL/6 mice.
Data set [2] can be described thus: QT, QTc intervals and heart rate in conscious telemetered beagle dogs. Type of data set: in vivo. Conditions: for Emesis: beagle dogs. As for the experimental part: Compound of Formula I.a was administered via peroral (p.o.) route at three dose levels: 5, 15, and 30 mg/kg in conscious telemetered male and female beagle dogs.
(§1) Measurements of ECG parameters (QT interval, QTcb interval, QTcf interval) and heart rate were carried out and recorded over a period of 2 hour prior to drug administration (baseline), and continuously up to 24 hour post-administration. Each animal received both vehicle (placebo) and three different doses of the compound of Formula I.a on different days in a Latin square design, with a washout period of a minimum of 96 hr. On a separate day, one additional oral dosing of compound of Formula I.a was performed to assess plasma concentrations of the compound of Formula I.a at different time points, to derive pharmacokinetic (PK) parameters.
Data of ECG parameters (QT interval, QTcb interval, QTcf interval,) and heart rate were statistically compared as follows: Data of the placebo group at 0.5, 1, 1.5, 2, 3, 4, 5, 6, 8, 12, and 24 hour time points were compared with baseline data of the same group. Data of different groups treated with the compound of Formula I.a were compared with the corresponding data of the placebo group.

The target in a further data set is T1, hERG K+ channel (Homo sapiens, UniProt Q12809).
T1 construct: expressed in transfected cells
T1 sequence (Q12809 whole entry): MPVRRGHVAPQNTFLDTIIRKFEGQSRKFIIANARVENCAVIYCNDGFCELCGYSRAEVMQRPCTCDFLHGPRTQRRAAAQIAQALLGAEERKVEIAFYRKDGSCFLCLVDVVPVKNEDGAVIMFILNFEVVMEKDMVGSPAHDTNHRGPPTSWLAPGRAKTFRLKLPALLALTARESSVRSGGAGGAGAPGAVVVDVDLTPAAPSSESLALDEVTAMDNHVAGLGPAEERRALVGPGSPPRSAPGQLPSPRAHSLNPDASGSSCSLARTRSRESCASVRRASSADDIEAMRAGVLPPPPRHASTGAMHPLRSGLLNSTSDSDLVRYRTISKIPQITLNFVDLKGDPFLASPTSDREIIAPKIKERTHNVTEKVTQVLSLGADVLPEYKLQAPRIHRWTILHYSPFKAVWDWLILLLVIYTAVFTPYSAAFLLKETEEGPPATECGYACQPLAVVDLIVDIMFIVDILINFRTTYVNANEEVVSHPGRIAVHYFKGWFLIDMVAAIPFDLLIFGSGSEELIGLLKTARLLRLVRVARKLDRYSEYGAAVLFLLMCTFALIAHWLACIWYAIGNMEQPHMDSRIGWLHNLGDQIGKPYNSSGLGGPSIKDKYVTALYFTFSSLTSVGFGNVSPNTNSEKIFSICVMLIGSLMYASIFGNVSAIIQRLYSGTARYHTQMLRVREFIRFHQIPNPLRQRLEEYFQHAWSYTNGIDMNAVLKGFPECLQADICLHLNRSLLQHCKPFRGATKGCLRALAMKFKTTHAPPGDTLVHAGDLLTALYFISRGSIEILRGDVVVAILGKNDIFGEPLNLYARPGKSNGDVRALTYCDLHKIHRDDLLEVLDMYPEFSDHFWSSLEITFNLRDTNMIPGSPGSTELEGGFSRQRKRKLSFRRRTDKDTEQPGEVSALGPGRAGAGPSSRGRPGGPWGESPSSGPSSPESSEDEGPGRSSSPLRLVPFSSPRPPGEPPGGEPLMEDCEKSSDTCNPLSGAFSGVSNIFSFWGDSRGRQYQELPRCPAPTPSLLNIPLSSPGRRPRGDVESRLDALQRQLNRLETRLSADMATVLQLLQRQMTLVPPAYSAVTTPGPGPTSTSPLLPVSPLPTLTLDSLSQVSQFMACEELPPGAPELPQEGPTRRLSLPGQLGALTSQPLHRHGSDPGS
Nature of the data set: hERG K+ channel patch clamp in HEK293 cells. The format is cell-based. Conditions: for Inhibition of hERG current (in words): at the concentration tested. The procedure: The in vitro effect of the compounds of Formula I.a and I.b on ionic currents in voltage-clamped human embryonic kidney cells (HEK293) that stably express the human ether-à-go-go-related gene (hERG) was examined. Two concentrations of the compounds of Formula I.a and I.b (1 and 10 μM) were tested at near physiological temperature.
Cells were transferred to the recording chamber and superfused with vehicle control solution (HEPES-buffered physiological saline solution+1% dimethylsulfoxide+1% Bovine serum albumin). Micropipette solution for whole cell patch clamp recordings was composed of: potassium aspartate, 130 mM; MgCl2, 5 mM; EGTA, 5 mM; ATP, 4 mM; HEPES, 10 mM; pH adjusted to 7.2 with 10N KOH. Micropipette solution was prepared in batches, aliquoted, stored frozen and a fresh aliquot thawed each day. The recording was performed at a temperature of 33 to 35° C. using a combination of in-line solution pre-heater, chamber heater and feedback temperature controller. Temperature was measured using a thermistor probe in the recording chamber. Micropipettes for patch clamp recording were made from glass capillary tubing using a P-97 micropipette puller (Sutter Instruments, Novato, Calif.). A commercial patch clamp amplifier was used for whole cell recordings. Before digitization, current records were low-pass filtered at one-fifth of the sampling frequency.
Cells stably expressing hERG were held at −80 mV. Onset and steady state inhibition of hERG potassium current due to the test compounds (Formula I.a and I.b) were measured using a pulse pattern with fixed amplitudes (conditioning prepulse +20 mV for 1 s; repolarizing test ramp to −80 mV (−0.5 V/s) repeated at 5 s intervals). […] was subtracted off-line digitally from the data to determine the potency of the test compounds for hERG inhibition.

Data set [3] can be described thus: Brain/plasma pharmacokinetic study in mice. Type of data set: in vivo, C57BL6 mice. As for the experimental part: At 1, 4 & 8 hour time points post treatment, mice were anesthetized with isoflurane and a 0.4 mL of blood was withdrawn from retro-orbital plexus into eppendorf tubes containing 8 μL sodium heparin as an anticoagulant (100 IU/ml) and transferred to ice containers. Blood samples were centrifuged immediately for 7 min at 8500 rpm, 4° C. Plasma was separated in the pre-labeled eppendorf tubes and stored at −70° C. till further analysis. Immediately thereafter, the mice were sacrificed, whole brain was removed and rinsed with ice-cold phosphate buffered saline (PBS) to remove extraneous blood and blot-dried. Brain tissue samples were weighed and homogenized in 1:2 volume of PBS using a tissue homogenizer and stored in labeled vials at −70° C. until further analysis. Concentrations of the compound of Formula I.a in brain and plasma were determined using the LC-MS technique.

Data set [4] is described as follows: Plasma pharmacokinetics in beagle dogs. Type of data set: in vivo. Conditions: dog, oral. The procedure: as §1
Data set [5] can be described thus: QT, QTc intervals and heart rate in anesthetized guinea pig. Conditions: 1 mg/kg intravenous infusion over 10 min. The format is in vivo, Dunkin-Hartley guinea pigs. The procedure: Male Dunkin-Hartley guinea pigs of body weight range 300-400 g were anaesthetized by intraperitoneal injection of urethane (1.5 g/kg). A tracheotomy was performed and animal was allowed to breath spontaneously throughout the experiment. The left jugular vein was catheterized using polyethylene catheter filled with heparinized saline solution (100 IU/mL) for drug administration. Electrodes were placed in lead II position and baseline ECG was recorded.
For different animals, according to body weight, doses of the compound of Formula I.b were weighed and prepared in 0.5 mL of DMSO and administered via a slow intravenous infusion administered over a period of 10 min. ECGs were recorded during and after completion of infusion up to 0.5 hr. QT and RR intervals were measured, using PowerLab 4SP® software. The data were analyzed at 1, 5, and 10 min during infusion and 5, 10, 15 and 30 min after infusion taking mean of 9 beats.

A further data set deals with Abl (human) (Homo sapiens, UniProt P00519). Nature of the data set: Abl kinase inhibition. Type of data set: biochemical. Conditions: read-out: Comparative potencies of tyrosine kinase inhibitors in c-Abl IC50. The procedure: [specific activity approx. 500 cpm/pmol, concentration as required). The reaction is initiated by the addition of the MgATP mix. After incubation for 40 minutes at room temperature, the reaction is stopped by the addition of 5 μL of a 3% phosphoric acid solution. 10 μL of the reaction is then spotted onto a P30 filtermat and washed three times for 5 minutes in 75 mM phosphoric acid and once in methanol prior to drying and scintillation counting.
Sequence of Abl (human) (P00519 whole entry): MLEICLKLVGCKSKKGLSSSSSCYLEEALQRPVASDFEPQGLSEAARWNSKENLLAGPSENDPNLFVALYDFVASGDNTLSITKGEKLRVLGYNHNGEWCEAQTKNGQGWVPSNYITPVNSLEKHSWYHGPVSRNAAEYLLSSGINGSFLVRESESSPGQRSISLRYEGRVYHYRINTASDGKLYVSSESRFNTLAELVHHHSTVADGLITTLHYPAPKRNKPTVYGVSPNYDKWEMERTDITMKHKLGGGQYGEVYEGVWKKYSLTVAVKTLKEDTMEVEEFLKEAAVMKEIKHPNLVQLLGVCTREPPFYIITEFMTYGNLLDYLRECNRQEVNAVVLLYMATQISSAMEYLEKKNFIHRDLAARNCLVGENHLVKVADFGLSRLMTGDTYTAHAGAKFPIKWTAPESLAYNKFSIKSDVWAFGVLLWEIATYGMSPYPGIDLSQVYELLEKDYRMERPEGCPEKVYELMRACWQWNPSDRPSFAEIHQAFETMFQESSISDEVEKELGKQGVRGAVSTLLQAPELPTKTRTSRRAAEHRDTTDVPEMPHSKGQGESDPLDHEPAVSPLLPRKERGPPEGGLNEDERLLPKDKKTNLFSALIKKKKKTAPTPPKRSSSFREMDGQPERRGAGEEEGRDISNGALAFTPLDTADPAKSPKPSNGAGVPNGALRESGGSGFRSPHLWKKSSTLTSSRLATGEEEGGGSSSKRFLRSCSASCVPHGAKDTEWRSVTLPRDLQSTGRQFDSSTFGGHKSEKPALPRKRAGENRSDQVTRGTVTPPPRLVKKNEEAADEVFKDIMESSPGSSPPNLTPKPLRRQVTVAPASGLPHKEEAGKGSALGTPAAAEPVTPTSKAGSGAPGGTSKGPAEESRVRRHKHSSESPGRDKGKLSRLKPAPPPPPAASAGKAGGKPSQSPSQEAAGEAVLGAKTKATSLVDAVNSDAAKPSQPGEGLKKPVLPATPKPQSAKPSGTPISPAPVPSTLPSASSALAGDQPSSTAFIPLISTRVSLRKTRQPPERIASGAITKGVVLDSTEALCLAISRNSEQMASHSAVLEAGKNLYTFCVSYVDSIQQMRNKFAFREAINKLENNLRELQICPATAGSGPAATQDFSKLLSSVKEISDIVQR

The mark [6] stands for this setting: human, HEK293 cells stably expressing hERG, 33 to 35° C., n=3, read-out: Mean percent inhibition of hERG current.

With `Cc1ccc(C(=O)NNC(=O)c2c(C)cccc2Cl)cc1C#Cc1cnc2ccccc2c1` [Compound I.a, N′-(2-Chloro-6-methylbenzoyl)-4-methyl-3-[2-(3-quinolyl)ethynyl]-benzohydrazide], the “Prevention of neurodegeneration induced by MPTP (TH-positive neurons, percentage area, integrated density)” value in data set [1] is recorded as “significantly prevented the neurodegeneration induced by MPTP”. For the same compound, the Emesis entry in data set [2] (p.o., 30 mg/kg, at 14 min following dosing) is reported as “Emesis occurred in two animals”; in data set [2] (p.o., 5 and 15 mg/kg) it was “No emesis was observed”. Moreover, the “Change in ECG morphology” value in data set [2] (conscious beagle dogs, any dose level) is given as “no change in ECG morphology”. The Heart rate result in data set [2] (conscious beagle dogs, p.o., 5 and 15 mg/kg) was “remained unchanged”. In addition, the “Effect on QT, QTcb, QTcf durations compared with placebo” value in data set [2] (conscious beagle dogs, p.o., 5 and 15 mg/kg, up to 24 hour) is “no effects”. Also, the “Effect on cardiovascular functions” value in data set [2] (conscious beagle dogs, single oral administration up to 15 mg/kg) was “no effect on cardiovascular functions”. Moreover, at hERG K+ channel, the “Inhibition of hERG current (in words)” value was “did not show any significant inhibition of hERG current”. The inhibition at 1 µM at hERG K+ channel (setting [6]) was found to be 2.1 ± 0.4%. Further, the inhibition at 10 µM at hERG K+ channel (human, HEK293 cells stably expressing hERG, 10 μM, 33 to 35° C., n=3, read-out: Mean percent inhibition of hERG current) worked out at 9.7 ± 0.4%. In addition, the “Brain to plasma ratio as compared to nilotinib or dasatinib” value in data set [3] (oral 30 mg/kg) is “significantly higher”. In addition, the figures for the area under the curve AUC(0-inf) in data set [4] (5 mg/kg), in data set [4] (15 mg/kg) and in data set [4] (30 mg/kg) were 1920 to 4820 ng·h/mL, 6780 to 12800 ng·h/mL and 25900 to 46700 ng·h/mL, respectively. Also, the Cmax in data set [4] (5 mg/kg) lay in the range of 1220 to 2030 ng/mL; in data set [4] (15 mg/kg), 2720 to 5320 ng/mL; in data set [4] (30 mg/kg), 9820 to 9970 ng/mL.
In the case of `Cc1ccc(C(=O)NNC(=O)c2c(C)cccc2Cl)cc1C#Cc1ccc(NC(=O)C2CC2)nc1` [Compound I.b, Cyclopropanecarboxylic acid (5-{5-[N′-(2-chloro-6-methylbenzoyl)hydrazinecarbonyl]-2-methyl-phenylethynyl}-pyridin-2-yl)amide], the “Prevention of neurodegeneration induced by MPTP (TH-positive neurons, percentage area, integrated density)” value in data set [1] is “significantly prevented the neurodegeneration induced by MPTP”. Also, in data set [5], the “Change in QT intervals” value is on record as “no change in QT intervals”. In addition, the “Inhibition of hERG current (in words)” value at hERG K+ channel was “did not show any significant inhibition of hERG current”. Further, on hERG K+ channel (human, HEK293 cells stably expressing hERG, 0.3 μM, 33 to 35° C., n=3, read-out: Mean percent inhibition of hERG current), the inhibition at 0.3 µM was 5.6%. At hERG K+ channel (setting [6]), the inhibition at 1 µM came out at 12.9%. In addition, at hERG K+ channel (human, HEK293 cells stably expressing hERG, 3 μM, 33 to 35° C., n=3, read-out: Mean percent inhibition of hERG current), the inhibition at 3 µM stood at 25%. For the same compound, the 50% inhibitory concentration (IC50) on Abl (human) came to 0.6 nM.
Regarding `Cc1nc(Nc2ncc(C(=O)Nc3c(C)cccc3Cl)s2)cc(N2CCN(CCO)CC2)n1` [Dasatinib, dasatinib, reference compound], in data set [3] (oral, I.a 30 mg/kg, nilotinib 100 mg/kg, dasatinib 30 mg/kg, 8 hr), the Plasma conc. result is listed as “BQL”.

For the origin of these results see patent US11813252B2, “Treatment for Parkinson's disease” (SUN PHARMA ADVANCED RESEARCH COMPANY LTD., priority 2016, dated 2023).
